Here are results for 74 molecules from article PMC13083723 (Patterns, 2026).

The assay concerns Vero-E6 cells. In words: cells. The class given is cell-based. To be noted: for activation at 10 µM: Chlorocebus sabaeus, Vero C1008, 24 h, read-out: PL_Result.

Residues, ends and D or L forms follow the SMILES beside them. *: point of attachment. Cbz = O=C(OCc1ccccc1)*

As for `OC[C@H]1O[C@@H](c2ccc(Cl)c(Cc3ccc(O[C@H]4CCOC4)cc3)c2)[C@H](O)[C@@H](O)[C@@H]1O` [SPE_K53765467], the activation at 10 µM is -10%.
Still for that read-out and setting: the value for `NCCCCN` [SPE_K75282878] was 0.35%; that for `CN(C)CCOC(c1ccc(Cl)cc1)c1ccccn1` (centres unmarked) [SPE_A29426959] was -7.35%; that for `O=C(Cn1ccnc1[N+](=O)[O-])NCCO` [SPE_K96042922] was -3.79%.
The same measure, in the same setting: the value for `CC(C)(C)NCC(O)COc1cccc2[nH]c(=O)[nH]c12` (centres unmarked) [SPE_A40084411] was 1.76%; that for `C[N+]12CCC(CC1)C(OC(=O)C(O)(c1ccccc1)c1ccccc1)C2` (centres unmarked) [SPE_A46066006] was 2.01%; that for `CCCc1nc(C)c2c(=O)[nH]c(-c3cc(S(=O)(=O)N4CCN(CC)CC4)ccc3OCC)nn12` [SPE_K13926615] was 1%.
The same measure, in the same setting: the value for `NC[C@H]1O[C@H](O[C@H]2C(O[C@@H]3O[C@H](CO)[C@@H](O)[C@H]3O)[C@@H](O)[C@H](N)C[C@@H]2N)[C@H](N)[C@@H](O)[C@@H]1O` (some centres unmarked) [SPE_A03826781] was -7.3%; that for `C/C(=C\c1csc(C)n1)[C@@H]1C[C@@H]2O[C@]2(C)CCC[C@H](C)[C@H](O)[C@@H](C)C(=O)C(C)(C)[C@@H](O)CC(=O)N1` [SPE_K03601870] was -10.6%; that for `CCOC(=O)Nc1ccc2c(c1)N(C(=O)CCN(CC)CC)c1ccccc1S2` [SPE_K10667240] was -10.8%.
For the molecule `CC(=O)C1(N)Cc2c(O)c3c(c(O)c2[C@@H](O[C@H]2C[C@H](O)[C@H](O)CO2)C1)C(=O)c1ccccc1C3=O` (some centres unmarked) [SPE_K13843533], the activation at 10 µM was determined as 6.95%.
On the same count and under the same terms, the value for `Cc1cc(-c2nncc3c(C(C)(C)C)c(OCc4ncnn4C)nn23)no1` [SPE_K44022883] was -4.38%; that for `C[C@H](NC(=O)[C@@H](O)c1cc(F)cc(F)c1)C(=O)N[C@@H]1C(=O)N(C)c2ccccc2-c2ccccc21` [SPE_K20013301] was -13.5%.
The same measure, in the same setting: the value for `O=[N+]([O-])c1cncn1CCN1CCOCC1` [SPE_K79145628] was -10.4%.
Same read-out and setting: the figure for `CCc1ccc(C(=O)C(C)CN2CCCCC2)cc1` (centres unmarked) [SPE_A04252265] is -4.05%; for `CN(C)C(=N)NCCC[C@H](N)C(=O)O` [SPE_K36269323] it is -6.39%; for `Cc1cccc2c1CC[C@H](CN1CCC(c3c(Cl)cccc3Cl)CC1)C[C@@H]2O` [SPE_K08333979] it is -2.39%.
In the case of `CC(=O)NNC(=O)N1Cc2ccccc2Oc2ccc(Cl)cc21` [SPE_K52512893], the activation at 10 µM was -10.6%.
Still for that read-out and setting: the figure for `CC[n+]1c(-c2ccccc2)c2cc(N)ccc2c2ccc(N)cc21` [SPE_K28354016] is 9.76%.
Same read-out and setting: the figure for `C[N+]1(C)CCc2cc3c(cc2[C@H]1[C@@H]1OC(=O)c2c1ccc1c2OCO1)OCO3` [SPE_A57798559] is -11.7%.
On the same count and under the same terms, the figure for `CCCCCCCCCCC(=O)O[C@H]1CC[C@H]2[C@@H]3CCC4=CC(=O)CC[C@]4(C)[C@H]3CC[C@]12C` [SPE_K70650177] is -4.09%; for `O=C(Nc1cccc(Cl)c1)c1ccccn1` [SPE_K66527818] it is -8.01%; for `CCCN(CCC)S(=O)(=O)c1ccc(C(=O)O)cc1` [SPE_K95237249] it is 0.643%.
Regarding `CC(CN)CC(=O)O` (centres unmarked) [SPE_A62890442], the activation at 10 µM is -10.6%.
Same read-out and setting: the figure for `Nc1ccc(S(=O)(=O)Nc2ccnn2-c2ccccc2)cc1` [SPE_K10671814] is -1.85%; for `Cc1cccc(Nc2ccncc2S(=O)(=O)NC(=O)NC(C)C)c1` [SPE_K30480208] it is -3.18%.
On the same count and under the same terms, the value for `Cc1cccc(C)c1NC(=O)C(C)N` (centres unmarked) [SPE_A92670106] was -8.17%.
Same read-out and setting: the figure for `CN1CCC(=C2c3ccccc3CC(=O)c3sccc32)CC1` [SPE_K28936863] is -4.71%; for `COc1cc(COc2cc(N)c(Cl)cc2C(=O)CCC2CCN(CCNS(C)(=O)=O)CC2)cc(OC)c1` [SPE_K20742498] it is -9.12%; for `COc1cc2c(cc1OC)[C@@H]1CC(=O)[C@@H](CC(C)C)CN1CC2` [SPE_K95739795] it is -5.22%.
In the case of `C=CC(C)(O)CCC=C(C)C` (centres unmarked) [SPE_A43082461], the activation at 10 µM was -7.7%.
Still for that read-out and setting: the value for `CN1CCN(c2nc3ccccc3nc2Cl)CC1` [SPE_K11046126] was -4.46%.
Turning to `COc1ccccc1N1CCN(CCCCNC(=O)c2ccc3ccccc3c2)CC1` [SPE_K17378184], the activation at 10 µM came to 28.8%.
Regarding `Nc1nc(OCc2ccccc2)c2nc[nH]c2n1` [SPE_K92041145], the activation at 10 µM is -3.41%.
In the case of `O=c1[nH]c(=O)n([C@H]2C[C@H](O)[C@@H](CO)O2)cc1/C=C/Br` [SPE_A63675168], the activation at 10 µM is -6.33%.
Still for that read-out and setting: the value for `N[C@@H](CC(=O)N1CCn2c(nnc2C(F)(F)F)C1)Cc1n[nH]c2c(F)c(F)ccc12` [SPE_K04035716] was -1.31%.
Consider `C[C@@H](O)[C@H](N)C(=O)N1CCC[C@H]1C(=O)N1CCC[C@H]1C(=O)N[C@H](C(N)=O)[C@@H](C)O` [SPE_K02206208] (H-TPPT-NH2), for which the PL_Result is reported as -5.35.
Regarding `O=S(=O)(NCCCCCCc1ccccc1)c1cccc2c(Cl)cccc12` [SPE_K25875056], the activation at 10 µM was -10.4%.
Take `CC(C)NCC(O)c1ccc(O)c(O)c1` (centres unmarked) [SPE_A04322457]: the activation at 10 µM was -1.28%.
With `O=c1c(-c2ccc(O)cc2)coc2cc(O)cc(O)c12` [SPE_K43797669], the activation at 10 µM came to 24.8%.
The same measure, in the same setting: the value for `O=C(NCc1ccc(F)cc1)N1CCN2C(=O)OC(c3ccccc3)(c3ccccc3)C2C1` (centres unmarked) [SPE_A63344375] was -2.64%; that for `OCCN1C[C@@H](O)[C@@H](O)C(O)C1CO` (some centres unmarked) [SPE_A63310107] was -7.51%; that for `CC(=O)OCC(=O)[C@H]1CC[C@H]2[C@@H]3CC[C@H]4C[C@H](O)CC[C@]4(C)[C@H]3C(=O)C[C@]12C` [SPE_K51751936] was -4.71%.
The same measure, in the same setting: the value for `COc1cccc(-c2cc(=O)c3ccccc3o2)c1N` [SPE_K62810658] was 2.96%.
Same read-out and setting: the value for `COc1ccc([C@H]2CNC(=O)C2)cc1OC1CCCC1` [SPE_K65856711] was -5.06%; that for `Cn1cc(-c2ccc(F)c(C(F)(F)F)c2)nc1C1CCN(c2ncnc3[nH]ncc23)CC1` [SPE_K21833260] was -1.12%.
Take `COc1ccc(Cl)c(Nc2nc3ccccc3nc2NS(=O)(=O)c2cccc(NC(=O)C(C)(C)N)c2)c1` [SPE_K49456274]: the activation at 10 µM is -4.27%.
Still for that read-out and setting: the figure for `CC(=O)NC1[C@@H](O)OC(CO)[C@@H](O)[C@H]1O` (some centres unmarked) [SPE_A92872453] is -7.39%; for `CC(C)C[C@@H](C=O)NC(=O)[C@H](CC(C)C)NC(=O)[C@H](CC(C)C)NC(=O)OCc1ccccc1` [SPE_K60230970] (Cbz-Leu-Leu-Leu-aldehyde) it is -0.437%; for `CCN1C(=O)CN=C2NC=C(c3ccc(-c4nnc[nH]4)nc3C)N=C21` [SPE_K16755045] it is 5.12%.
The same measure, in the same setting: the value for `COC(=O)Nc1ccc(-c2nc(N3CCOCC3)c3cnn(C4CCN(Cc5cccnc5)CC4)c3n2)cc1` [SPE_K49900195] was 1.79%; that for `O=S(=O)(NCC1CC1)c1ccc(Nc2nccc(N3CCCc4cc(O)ccc43)n2)cc1` [SPE_K94659840] was 3.48%.
Same read-out and setting: the figure for `Nc1nc2[nH]nnc2c(=O)[nH]1` [SPE_K53114651] is -1.39%.
As for `CCC[C@H](N[C@@H](C)C(=O)N1[C@H](C(=O)O)C[C@@H]2CCCC[C@@H]21)C(=O)OCC` [SPE_K92731339], the activation at 10 µM was 4.37%.
Still for that read-out and setting: the value for `CC(=O)O[C@]1(C(C)=O)CC[C@H]2[C@@H]3C[C@H](C)C4=CC(=O)C=C[C@]4(C)[C@@]3(F)[C@@H](O)C[C@@]21C` [SPE_K02528732] was -9.55%; that for `COC(F)(F)C(Cl)Cl` [SPE_K06152156] was -2.25%.
Same read-out and setting: the figure for `C#C[C@]1(O)CC[C@H]2[C@@H]3CCC4=CC(=O)CCC4=C3C=C[C@@]21CC` [SPE_K97472745] is -10.6%; for `Nc1nnc2[nH]c3ccccc3nc1-2` [SPE_K87932577] it is -2.99%.
The same measure, in the same setting: the value for `CCOC(=O)c1ccccc1OC(N)=O` [SPE_K21892374] was 3.89%.
`CC1=CC[C@@H](C(C)(C)O)C[C@@H]1O` [SPE_K58262380]: the activation at 10 µM was -11.5%.
Same read-out and setting: the value for `N[C@H](CSC(c1ccccc1)(c1ccccc1)c1ccccc1)C(=O)O` [SPE_K09774593] was -6.1%; that for `O=C(O)c1ccc2c(c1)nc(Nc1cccc(Cl)c1)c1ccncc12` [SPE_K81458380] was 1.48%; that for `CCCCc1nc(Cl)c(C(=O)O)n1Cc1ccc(-c2ccccc2-c2nnn[nH]2)cc1` [SPE_K23533833] was 4.67%.
Still for that read-out and setting: the value for `Nc1ccc(S(=O)(=O)Nc2ccc(Cl)nn2)cc1` [SPE_K32021043] was 5.81%.
`CC(C)OC(=O)OCOP(=O)(CO[C@H](C)Cn1cnc2c(N)ncnc21)OCOC(=O)OC(C)C` [SPE_K61868322]: the activation at 10 µM is -3.62%.
On the same count and under the same terms, the figure for `Cc1c(Cl)cccc1S(=O)(=O)Nc1nc(NCCc2ccccc2)nc2c1CN(Cc1ccccc1)CC2` [SPE_K35772771] is -25%; for `C=CCc1cc(OC)c(O)c(C(=O)NCCO)c1` [SPE_K60102752] it is -3.89%; for `CNC(=O)[C@H](Cc1ccccc1)NC(=O)[C@H](CC(C)C)[C@H](CSc1cccs1)C(=O)NO` [SPE_K82818427] it is 11.4%.
With `CCc1cc2c(cc1N1CCC(N3CCOCC3)CC1)C(C)(C)c1[nH]c3cc(C#N)ccc3c1C2=O` [SPE_K11267252], the activation at 10 µM came to 0.894%.
On the same count and under the same terms, the value for `Nc1ncnc2c1ncn2C1CCCO1` (centres unmarked) [SPE_A56987319] was 0.343%.
On the same count and under the same terms, the figure for `Cc1cc(OCc2nc(-c3ccccc3Cl)cs2)ccc1OCC(=O)O` [SPE_K19409553] is 5.84%.
Still for that read-out and setting: the figure for `Cc1cc(C)nc(NS(=O)(=O)c2ccc(NC(=S)NC(=O)COc3ccc(Br)cc3Cl)cc2)n1` [SPE_K22829793] is -2.21%.
For `Nc1ccn(C[C@@H](CO)OCP(=O)(O)O)c(=O)n1` [SPE_K96153583], the activation at 10 µM is -12.6%.
Still for that read-out and setting: the value for `CC(C)(C)NCC(O)c1ccccc1Cl` (centres unmarked) [SPE_A37441042] was 4.82%.
